Reference: ChEMBL document CHEMBL3885881, “DrugMatrix”
Where “and” joins values, the source holds several entries; their conditions need not be identical. Equal values may be shown once.

Organism: Rattus norvegicus
Assay: DrugMatrix - Regimen: Daily Repeat
Type: toxicity, organism-based, Sprague-Dawley
Set-up: regimen Daily Repeat, gender Male, age 6-8 weeks
Conditions: in vivo, sc, route mini-PUMP - SUBCUTANEOUS, vehicle 100 % SALINE; for ABSOLUTE MONOCYTE / ABSOLUTE SEGMENTED NEUTROPHIL / BASOPHIL / EOSINOPHIL / ERYTHROCYTE COUNT / HEMATOCRIT / HEMOGLOBIN / LEUKOCYTE COUNT / MEAN CORPUSCULAR HEMOGLOBIN / MEAN CORPUSCULAR HEMOGLOBIN CONCENTRATION / MEAN CORPUSCULAR VOLUME / MONOCYTE / NEUTROPHIL / NUCLEATED RED BLOOD CELLS / PLATELET COUNT / ABSOLUTE BASOPHIL / ABSOLUTE EOSINOPHIL / ABSOLUTE LYMPHOCYTE: tissue Blood; for ALBUMIN / ALKALINE PHOSPHATASE / ASPARTATE AMINOTRANSFERASE / BLOOD UREA NITROGEN / CARBON DIOXIDE / CHOLESTEROL / CREATINE PHOSPHOKINASE / CREATININE / GLUCOSE / LACTATE DEHYDROGENASE / PHOSPHORUS / POTASSIUM / SODIUM / TOTAL BILIRUBIN / URIC ACID: tissue Plasma
[1] = 0 mg/kg, 72 h, dose level Control, time 3 day
[2] = 0 mg/kg, 120 h, dose level Control, time 5 day
[3] = 0 mg/kg, […], dose level Control, time 14 day
[4] = 0.5 mg/kg, 72 h, dose level High, time 3 day
[5] = 0.5 mg/kg, 120 h, dose level High, time 5 day
[6] = 0.5 mg/kg, […], dose level High, time 14 day

`CC[C@H](C)[C@H](NC(=O)[C@H](Cc1ccc(O)cc1)NC(=O)[C@@H](NC(=O)[C@H](CCCNC(=N)N)NC(=O)[C@@H](N)CC(=O)O)C(C)C)C(=O)N[C@@H](Cc1cnc[nH]1)C(=O)N1CCC[C@H]1C(=O)N[C@@H](Cc1ccccc1)C(=O)O` [ANGIOTENSIN II] was tested, and the ABSOLUTE MONOCYTE [1] was 230 cells/µL and 354 CELLS/uL, the “ABSOLUTE SEGMENTED NEUTROPHIL” value [1] was 1658.33 CELLS/uL and the BASOPHIL [1] was 0.3% and 0%. For the same compound, the EOSINOPHIL [1] was 0.43% and 0.5%, the “ERYTHROCYTE COUNT” value [1] was 6.91 x10E6/uL and 6.27 x10E6/uL and the HEMATOCRIT [1] was 45.43% and 36.95%. For the same compound, the HEMOGLOBIN [1] was 14.37 G/DL and 13.4 G/DL, the “LEUKOCYTE COUNT” value [1] was 12.09 x10E3/uL and 16.38 x10E3/uL and the “MEAN CORPUSCULAR HEMOGLOBIN” value [1] was 20.8 pg and 21.42 pg. The “MEAN CORPUSCULAR HEMOGLOBIN CONCENTRATION” value [1] was 31.67 G/DL and 36.27 G/DL, the “MEAN CORPUSCULAR VOLUME” value [1] was 65.83 fL and 59.03 fL and the MONOCYTE [1] was 1.83% and 2%. The NEUTROPHIL [1] was 15.07% and 10.33%, the “NUCLEATED RED BLOOD CELLS” value [1] was 0 /100WBC and the “PLATELET COUNT” value [1] was 1299.67 x10E3/uL and 904.67 x10E3/uL. The ALBUMIN [1] was 3.83 G/DL and 3.82 G/DL, the “ALKALINE PHOSPHATASE” value [1] was 333.67 u/L and 282.33 u/L and the “ASPARTATE AMINOTRANSFERASE” value [1] was 68 u/L and 86.83 u/L. The “BLOOD UREA NITROGEN” value [1] was 19.33 mg/dL and 20.17 mg/dL, the “CARBON DIOXIDE” value [1] was 43 mmol/L and 34.67 mmol/L and the CHOLESTEROL [1] was 84.33 mg/dL and 71.5 mg/dL. For the same compound, the “CREATINE PHOSPHOKINASE” value [1] was 334.33 u/L, the CREATININE [1] was 0.53 mg/dL and 0.2 mg/dL and the GLUCOSE [1] was 156.67 mg/dL and 136.83 mg/dL. The “LACTATE DEHYDROGENASE” value [1] was 159 u/L, the PHOSPHORUS [1] was 9.8 mg/dL and 10.12 mg/dL and the POTASSIUM [1] was 5.93 MEQ/L and 5.92 MEQ/L. For the same compound, the SODIUM [1] was 146.33 MEQ/L and 147.8 MEQ/L, the “TOTAL BILIRUBIN” value [1] was 0.37 mg/dL and 0.2 mg/dL and the “URIC ACID” value [1] was 0.73 mg/dL and 1.4 mg/dL. The “ABSOLUTE SEGMENTED NEUTROPHIL” value [2] was 3216.67 CELLS/uL, the BASOPHIL [2] was 0.2% and 0% and the EOSINOPHIL [2] was 0.33% and 0%. For the same compound, the “ERYTHROCYTE COUNT” value [2] was 6.81 x10E6/uL and 6.11 x10E6/uL, the HEMATOCRIT [2] was 44.33% and 36.22% and the HEMOGLOBIN [2] was 13.77 G/DL and 13.18 G/DL. For the same compound, the “LEUKOCYTE COUNT” value [2] was 11.2 x10E3/uL and 17.8 x10E3/uL, the “MEAN CORPUSCULAR HEMOGLOBIN” value [2] was 20.23 pg and 21.62 pg and the “MEAN CORPUSCULAR HEMOGLOBIN CONCENTRATION” value [2] was 31.03 G/DL and 36.42 G/DL. For the same compound, the “MEAN CORPUSCULAR VOLUME” value [2] was 65.1 fL and 59.37 fL, the MONOCYTE [2] was 2.1% and 1.83% and the NEUTROPHIL [2] was 16.43% and 17.67%. The “NUCLEATED RED BLOOD CELLS” value [2] was 0 /100WBC, the “PLATELET COUNT” value [2] was 1573.33 x10E3/uL and 1311 x10E3/uL and the ALBUMIN [2] was 3.87 G/DL and 3.83 G/DL. For the same compound, the “ALKALINE PHOSPHATASE” value [2] was 303.67 u/L and 260.33 u/L, the “ASPARTATE AMINOTRANSFERASE” value [2] was 72.67 u/L and 76.17 u/L and the “BLOOD UREA NITROGEN” value [2] was 17.33 mg/dL and 14.67 mg/dL. The “CARBON DIOXIDE” value [2] was 41.33 mmol/L and 31.33 mmol/L, the CHOLESTEROL [2] was 74.33 mg/dL and 75 mg/dL and the “CREATINE PHOSPHOKINASE” value [2] was 286.67 u/L. The CREATININE [2] was 0.47 mg/dL and 0.16 mg/dL, the GLUCOSE [2] was 152.33 mg/dL and 152.67 mg/dL and the “LACTATE DEHYDROGENASE” value [2] was 147.33 u/L. For the same compound, the PHOSPHORUS [2] was 10 mg/dL and 10.97 mg/dL, the POTASSIUM [2] was 6.4 MEQ/L and 6 MEQ/L and the SODIUM [2] was 146 MEQ/L and 145.52 MEQ/L. For the same compound, the “TOTAL BILIRUBIN” value [2] was 0.43 mg/dL and 0.17 mg/dL, the “URIC ACID” value [2] was 0.83 mg/dL and 1.27 mg/dL and the “ABSOLUTE SEGMENTED NEUTROPHIL” value [3] was 2414 CELLS/uL. For the same compound, the “NUCLEATED RED BLOOD CELLS” value [3] was 0.17 /100WBC, the “CREATINE PHOSPHOKINASE” value [3] was 262 u/L and the ABSOLUTE BASOPHIL [4] was 56.7 cells/µL. It also gave an ABSOLUTE EOSINOPHIL [4] of 70 cells/µL, an ABSOLUTE LYMPHOCYTE [4] of 10900 cells/µL and an ABSOLUTE MONOCYTE [4] of 510 cells/µL. The BASOPHIL [4] was 0.4%, the EOSINOPHIL [4] was 0.5% and the “ERYTHROCYTE COUNT” value [4] was 6.47 x10E6/uL. The HEMATOCRIT [4] was 44.43%, the HEMOGLOBIN [4] was 13.53 G/DL and the “LEUKOCYTE COUNT” value [4] was 14.39 x10E3/uL. For the same compound, the “MEAN CORPUSCULAR HEMOGLOBIN” value [4] was 20.97 pg, the “MEAN CORPUSCULAR HEMOGLOBIN CONCENTRATION” value [4] was 30.53 G/DL and the “MEAN CORPUSCULAR VOLUME” value [4] was 68.7 fL. For the same compound, the MONOCYTE [4] was 3.57%, the NEUTROPHIL [4] was 18.63% and the “PLATELET COUNT” value [4] was 1360 x10E3/uL. For the same compound, the ALBUMIN [4] was 3.77 G/DL, the “ALKALINE PHOSPHATASE” value [4] was 339 u/L and the “ASPARTATE AMINOTRANSFERASE” value [4] was 71.67 u/L. For the same compound, the “BLOOD UREA NITROGEN” value [4] was 19 mg/dL, the “CARBON DIOXIDE” value [4] was 41.33 mmol/L and the CHOLESTEROL [4] was 91.67 mg/dL. The “CREATINE PHOSPHOKINASE” value [4] was 392.67 u/L, the CREATININE [4] was 0.5 mg/dL and the GLUCOSE [4] was 169.67 mg/dL. For the same compound, the PHOSPHORUS [4] was 10.23 mg/dL, the POTASSIUM [4] was 6.3 MEQ/L and the SODIUM [4] was 150.67 MEQ/L. For the same compound, the “TOTAL BILIRUBIN” value [4] was 0.27 mg/dL, the “URIC ACID” value [4] was 0.93 mg/dL and the ABSOLUTE BASOPHIL [5] was 43.3 cells/µL. The ABSOLUTE EOSINOPHIL [5] was 36.7 cells/µL, the ABSOLUTE LYMPHOCYTE [5] was 9260 cells/µL and the ABSOLUTE MONOCYTE [5] was 340 cells/µL. For the same compound, the BASOPHIL [5] was 0.33%, the EOSINOPHIL [5] was 0.3% and the “ERYTHROCYTE COUNT” value [5] was 6.6 x10E6/uL. For the same compound, the HEMATOCRIT [5] was 45.03%, the HEMOGLOBIN [5] was 13.57 G/DL and the “LEUKOCYTE COUNT” value [5] was 12.59 x10E3/uL. For the same compound, the “MEAN CORPUSCULAR HEMOGLOBIN” value [5] was 20.53 pg, the “MEAN CORPUSCULAR HEMOGLOBIN CONCENTRATION” value [5] was 30.1 G/DL and the “MEAN CORPUSCULAR VOLUME” value [5] was 68.23 fL. For the same compound, the MONOCYTE [5] was 2.7%, the NEUTROPHIL [5] was 22.57% and the “PLATELET COUNT” value [5] was 1662.33 x10E3/uL. For the same compound, the ALBUMIN [5] was 3.8 G/DL, the “ALKALINE PHOSPHATASE” value [5] was 329 u/L and the “ASPARTATE AMINOTRANSFERASE” value [5] was 76.33 u/L. The “BLOOD UREA NITROGEN” value [5] was 17.67 mg/dL, the “CARBON DIOXIDE” value [5] was 41 mmol/L and the CHOLESTEROL [5] was 86.33 mg/dL. For the same compound, the “CREATINE PHOSPHOKINASE” value [5] was 239.67 u/L, the CREATININE [5] was 0.5 mg/dL and the GLUCOSE [5] was 171.33 mg/dL. It also gave a PHOSPHORUS [5] of 9.77 mg/dL, a POTASSIUM [5] of 5.87 MEQ/L and an SODIUM [5] of 152 MEQ/L. For the same compound, the “TOTAL BILIRUBIN” value [5] was 0.3 mg/dL, the “URIC ACID” value [5] was 1.33 mg/dL and the ABSOLUTE BASOPHIL [6] was 40 cells/µL. For the same compound, the ABSOLUTE EOSINOPHIL [6] was 62 cells/µL.
